PubChem BioAssay (NCI)
Where “and” joins values, the source holds several entries; their conditions need not be identical. Identical values can stand only once.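 All cell lines were grown in 96-well plates and treated with compound for 48 hours. GI50 marks 50% less growth. TGI denotes the concentration required for complete inhibition of growth.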

Tests used:
Assay in all cases: NCI anticancer screen, dose series, 48 h
[1] = system: SR leukemia
[2] = system: OVCAR-3 ovarian
[3] = system: UACC-62 melanoma
[4] = system: MOLT-4 leukemia
[5] = system: UO-31 renal
[6] = system: BT-549 breast
[7] = system: A498 renal
[8] = system: UACC-257 melanoma
[9] = system: DU-145 prostate
[10] = system: MALME-3M melanoma

Row | SMILES | TGI [1] | TGI [2] | TGI [3] | TGI [4] | TGI [5] | TGI [6] | GI50 [7] | TGI [7] [µM] | TGI [8] | TGI [9] | TGI [10] | GI50 [1] | GI50 [2] | GI50 [3] | GI50 [4] | GI50 [5] | GI50 [6] | GI50 [8] | GI50 [9] | GI50 [10]
1 | N=C(N)SCCc1ccccn1 | > 100 µM | > 100 µM | > 100 µM | > 100 µM | > 100 µM | > 100 µM | 37.8 µM and > 100 µM | > 100 | > 100 µM | > 100 µM | > 100 µM | – | – | – | – | – | – | – | – | –
2 | O=[N+]([O-])c1cc(F)c2cccnc2c1O | 6.96 µM | > 100 µM | 55.6 µM | 11 µM | 18.2 µM | > 100 µM | 6.84 µM | 42.4 | 58.8 µM | > 100 µM | 28.8 µM | 1.96 µM | 3.93 µM | 11 µM | 2.43 µM | 2.34 µM | 19 µM | 15.5 µM | 6.28 µM | 3.89 µM
3 | CCOC(=O)Cc1csc(NC(=O)COC(=O)c2ccc(OC)cc2)n1 | – | 46.3 µM | > 100 µM | > 35.6 µM | 11.1 µM | 66.3 µM | > 100 µM | > 100 | > 100 µM | > 100 µM | > 100 µM | 6.04 µM | 22.4 µM | > 100 µM | – | 5.76 µM | 24.7 µM | > 100 µM | 57.2 µM | 64.9 µM
4 | CCCn1c(N)c(C(=O)CNc2ccc(I)cc2)c(=O)[nH]c1=O | 28.3 µM | > 100 µM | > 100 µM | > 100 µM | > 100 µM | > 100 µM | 27.5 µM | > 100 | > 100 µM | > 100 µM | > 100 µM | 0.378 µM | > 48.4 µM | 1.15 µM | 0.422 µM | – | > 64.4 µM | – | 7.12 µM | 45.6 µM
5 | COc1ccc(-c2c(N)n[nH]c2-c2cc(OC)c(OC)c(OC)c2)cc1 | 29.1 µM | 0.187 µM | > 100 µM | > 100 µM | > 68.7 µM | > 29 µM | 0.0549 µM | 0.615 | > 100 µM | – | > 100 µM | 0.0308 µM | 0.04 µM | 0.14 µM | 0.275 µM | 0.926 µM | 1.41 µM | 23.6 µM | 0.272 µM | 22.5 µM
6 | CCOC(=O)c1ccccc1-c1c2ccc(=[N+](C)C)cc-2oc2cc(N(C)C)ccc12 | 27.4 µM | 13.4 µM | 4.12 µM | 35.7 µM | 8.1 µM | 2.77 µM | 0.013 µM | 1.11 | 7.58 µM | 24.1 µM | 7.62 µM | 0.298 µM | 0.209 µM | 0.332 µM | 0.488 µM | 2.18 µM | 0.178 µM | 0.198 µM | 0.174 µM | 0.333 µM
7 | Cc1ncc([N+](=O)[O-])n1CCNC(=O)CCCCCn1ccnc1[N+](=O)[O-] | > 100 µM | > 100 µM | > 100 µM | > 100 µM | > 100 µM | > 100 µM | – | > 100 | > 100 µM | > 100 µM | > 100 µM | – | – | – | – | – | – | – | – | –
8 | O=C(O)C(=O)CBr | > 64.8 µM and 71.1 µM | > 40.2 µM and 13 µM | > 62.5 µM and 35.3 µM | > 72.9 µM and 51.9 µM | > 54.7 µM and 31.8 µM | > 77.9 µM and 35.2 µM | > 100 µM | > 100 | > 100 µM and 33.6 µM | > 100 µM and 31.4 µM | > 59.1 µM and 32.5 µM | > 21.1 µM and 25.8 µM | > 21.1 µM and 3.61 µM | > 44.7 µM and 19 µM | > 40.6 µM and 21.9 µM | > 38 µM and 17.3 µM | > 47.6 µM and 20 µM | > 78.3 µM and 18.4 µM | > 61.9 µM and 17 µM | > 41.7 µM and 16.9 µM
9 | CN1CCN(CCOc2ccc(-c3cnc4c(-c5ccc(F)cc5)cnn4c3)cc2)CC1 | 10.9 µM | 3.35 µM | 3.36 µM | 3.59 µM | 2.93 µM | 9.44 µM | 1.64 µM | 4.89 | 4.42 µM | 3.16 µM | 3.13 µM | 2.07 µM | 1.68 µM | 1.78 µM | 1.56 µM | 1.31 µM | 2.68 µM | 2.11 µM | 1.64 µM | 1.62 µM
10 | NS(=O)(=O)c1ccc(NC(=O)Nc2ccccc2F)cc1 | > 100 µM | > 100 µM | > 100 µM | > 100 µM | > 100 µM | > 100 µM | – | > 100 | > 100 µM | > 100 µM | > 100 µM | – | – | – | – | – | – | – | – | –
11 | O=C(Nc1cc(-c2cccnc2)nc(NCCCN2CCOCC2)n1)c1cc(Br)cc(C(F)(F)F)c1 | 41.7 µM | 12.8 µM | 4.38 µM | 13.1 µM | 3.39 µM | 15 µM | 3.43 µM | 13.4 | 3.78 µM | 19.1 µM | 3.58 µM | 2.6 µM | 3.7 µM | 1.94 µM | 3.63 µM | 1.4 µM | 3.27 µM | 2.1 µM | 6.7 µM | 1.76 µM
12 | Cc1cc(S(=O)(=O)Nc2nc3cc(Cl)ccc3o2)c(SCc2ccccc2)cc1Cl | > 100 µM | 45.6 µM | 41.3 µM | > 100 µM | 48.5 µM | 38.7 µM | 18.8 µM | 35.5 | 38.4 µM | 45.9 µM | 48.5 µM | 46 µM | 22 µM | 19.2 µM | 37.8 µM | 22.4 µM | 19.3 µM | 18.4 µM | 22.4 µM | 19.3 µM
13 | COc1cc([C@@H]2c3cc4c(cc3C(OC3O[C@@H]5COC(C)O[C@H]5[C@H](O)[C@H]3O)C3COC(=O)[C@@H]32)OCO4)cc(OC)c1O (stereo not given in full) | – | > 28 µM | > 44.9 µM | 0.882 µM | 31.6 µM | > 29.2 µM | 0.605 µM | 14 | > 50 µM | 5.78 µM | 14.1 µM | 0.0276 µM | 4.8 µM | 0.868 µM | 0.0948 µM | 3 µM | 1.66 µM | 2.12 µM | 1.2 µM | 1.21 µM
